These results are taken from patent US20150376172A1, “FLUORO-[1,3]OXAZINES AS BACE1 INHIBITORS” (HOFFMANN-LA ROCHE INC., priority 2013, published 2015).

T1 sequence (P56817 46-501): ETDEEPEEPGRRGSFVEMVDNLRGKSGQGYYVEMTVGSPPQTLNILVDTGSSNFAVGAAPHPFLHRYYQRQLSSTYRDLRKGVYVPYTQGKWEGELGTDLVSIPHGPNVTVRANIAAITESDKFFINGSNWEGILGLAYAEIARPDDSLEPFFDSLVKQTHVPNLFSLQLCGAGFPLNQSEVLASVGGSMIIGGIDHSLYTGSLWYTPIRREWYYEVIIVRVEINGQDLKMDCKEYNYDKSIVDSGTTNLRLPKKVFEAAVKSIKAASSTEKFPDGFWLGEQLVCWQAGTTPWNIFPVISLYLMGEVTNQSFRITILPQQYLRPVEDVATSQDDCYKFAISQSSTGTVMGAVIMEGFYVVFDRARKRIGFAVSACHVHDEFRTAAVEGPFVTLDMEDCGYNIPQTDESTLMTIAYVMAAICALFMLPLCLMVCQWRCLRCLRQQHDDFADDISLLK

The assay concerns the target T1, BACE1 (Homo sapiens, UniProt P56817).
T1 construct: endogenous in cells; host or cells: HEK293 APP cells
The assay can be described thus: Cellular Aβ-lowering assay (Abeta 40 AlphaLISA). The assay is classed as cell-based. Particulars: HEK293 APP cells; 18-20 hrs incubation; Aβ 40 in culture supernatants by AlphaLISA; read-out: BACE1 cell act. Aβ40 IC50. The method, then: Cellular Aβ-lowering assay:
The Abeta 40 AlphaLISA Assay can be used. The HEK293 APP cells were seeded in 96 well Microtiter plates in cell culture medium (Iscove's, plus 10% (v/v) fetal bovine serum, penicillin/streptomycin) to about 80% confluency and the compounds were added at a 3× concentration in ⅓ volume of culture medium (final DMSO concentration was kept at 1% v/v). After 18-20 hrs incubation at 37° C. and 5% CO2 in a humidified incubator, the culture supernatants were harvested for the determination of Aβ 40 concentrations using Perkin-Elmer Human Amyloid beta 1-40 (high specificity) Kit (Cat#AL275C).
In a Perkin-Elmer White Optiplate-384 (Cat#6007290), 2 ul culture supernatants were combined with 2 μl of a 10× AlphaLISA Anti-hAβAcceptor beads+Biotinylated Antibody Anti-Aβ1-40 Mix (50 μg/mL/5 nM). After 1 hour room temperature incubation, 16 μl of a 1.25× preparation of Streptavidin (SA) Donor beads (25 μg/mL) were added and incubated for 30 minutes in the Dark. Light Emission at 615 nm was then recorded using EnVision-Alpha Reader. Levels of Aβ 40 in the culture supernatants were calculated as percentage of maximum signal (cells treated with 1% DMSO without inhibitor). The IC50 values were calculated using the Excel XLfit software.
In general terms: Bead proximity is the source of the signal in Alpha formats.
For `CCn1cc(C#Cc2ccc(F)c([C@]3(CF)C[C@@H](C(F)(F)F)OC(N)=N3)c2)cn1` [Example 58, (4S,6S)-4-(5-((1-Ethyl-1H-pyrazol-4-yl)ethynyl)-2-fluorophenyl)-4-(fluoromethyl)-6-(trifluoromethyl)-5,6-dihydro-4H-1,3-oxazin-2-amine], the IC50 is 25700 nM. Turning to `C[C@@]1(c2cc(C#Cc3cnc(C#N)nc3)ccc2F)C[C@@H](C(F)(F)F)OC(N)=N1` [Example 54, 5-[2-[3-[(4S,6S)-2-amino-4-methyl-6-(trifluoromethyl)-5,6-dihydro-1,3-oxazin-4-yl]-4-fluorophenyl]ethynyl]pyrimidine-2-carbonitrile], the IC50 came out at 1360 nM. Turning to `CC#Cc1cncc(-c2cc(Cl)c([C@]3(C)C[C@@H](C(F)(F)F)OC(N)=N3)s2)c1` [Example 30, (4S,6S)-4-(3-Chloro-5-(5-(prop-1-ynyl)pyridin-3-yl)thiophen-2-yl)-4-methyl-6-(trifluoromethyl)-5,6-dihydro-4H-1,3-oxazin-2-amine], the IC50 was found to be 620 nM. Next, `COc1cnc(C#Cc2ccc(F)c([C@]3(C)C[C@@H](C(F)(F)F)OC(N)=N3)c2)cn1` [Example 25, (4S,6S)-4-(2-Fluoro-5-((5-methoxypyrazin-2-yl)ethynyl)phenyl)-4-methyl-6-(trifluoromethyl)-5,6-dihydro-4H-1,3-oxazin-2-amine]: 1280 nM; `Cc1cc(F)c([C@]2(C)C[C@@H](C(F)(F)F)OC(N)=N2)cc1C#Cc1ncc(C#N)cc1Cl` [Example 69, 6-((5-((4S,6S)-2-Amino-4-methyl-6-(trifluoromethyl)-5,6-dihydro-4H-1,3-oxazin-4-yl)-4-fluoro-2-methylphenyl)ethynyl)-5-chloronicotinonitrile]: 130 nM; `C[C@@]1(c2cccc(NC(=O)c3ccc(C#N)cn3)c2F)C[C@@H](C(F)(F)F)OC(N)=N1` [Example 37, N-(3-((4S,6S)-2-Amino-4-methyl-6-(trifluoromethyl)-5,6-dihydro-4H-1,3-oxazin-4-yl)-2-fluorophenyl)-5-cyanopicolinamide]: 140 nM. As to `C[C@@]1(c2cc(C#Cc3cncc(C#N)c3)ccc2F)C[C@@H](C(F)(F)F)OC(N)=N1` [Example 56, 5-[2-[3-[(4S,6S)-2-amino-4-methyl-6-(trifluoromethyl)-5,6-dihydro-1,3-oxazin-4-yl]-4-fluorophenyl]ethynyl]pyridine-3-carbonitrile], the IC50 turned out to be 1650 nM. Consider `C[C@]1(c2cc(NC(=O)c3ccc(C#N)cn3)ccc2F)N=C(N)O[C@H](C(F)(F)F)[C@@H]1OCC(F)(F)F` [Example 8, N-(3-((4R,5R,6S)-2-Amino-4-methyl-5-(2,2,2-trifluoroethoxy)-6-(trifluoromethyl)-5,6-dihydro-4H-1,3-oxazin-4-yl)-4-fluorophenyl)-5-cyanopicolinamide], for which the IC50 worked out at 2 nM. The value for `C[C@@]1(c2cc(C#Cc3ccc(Cl)cc3)ccc2F)C[C@@H](C(F)(F)F)OC(N)=N1` [Example 75, (4S,6S)-4-(5-((4-Chlorophenyl)ethynyl)-2-fluorophenyl)-4-methyl-6-(trifluoromethyl)-5,6-dihydro-4H-1,3-oxazin-2-amine] was 1430 nM. Regarding `C[C@@]1(c2cc(CCc3ccc(C#N)cn3)ccc2F)C[C@@H](C(F)(F)F)OC(N)=N1` [Example 44, 6-(3-((4S,6S)-2-Amino-4-methyl-6-(trifluoromethyl)-5,6-dihydro-4H-1,3-oxazin-4-yl)-4-fluorophenethyl)nicotinonitrile], the IC50 was determined as 2020 nM.

Consider `NC1=N[C@](CF)(c2cc(C#Cc3ncc(Cl)cn3)ccc2F)C[C@@H](C(F)(F)F)O1` [Example 63, (4S,6S)-4-[5-[2-(5-Chloropyrimidin-2-yl)ethynyl]-2-fluorophenyl]-4-(fluoromethyl)-6-(trifluoromethyl)-5,6-dihydro-1,3-oxazin-2-amine], for which the IC50 was 430 nM.

As for `C[C@@]1(c2cc(-c3cccc(C(F)(F)F)c3)cs2)C[C@@H](C(F)(F)F)OC(N)=N1` [Example 28, (4S,6S)-4-Methyl-6-(trifluoromethyl)-4-(4-(3-(trifluoromethyl)phenyl)thiophen-2-yl)-5,6-dihydro-4H-1,3-oxazin-2-amine], the IC50 was determined as 330 nM. The value for `NC1=N[C@](CF)(c2cc(-c3nc4ccc(Cl)cc4o3)ccc2F)C[C@@H](C(F)(F)F)O1` [Example 45, (4S,6S)-4-(5-(6-Chlorobenzo[d]oxazol-2-yl)-2-fluorophenyl)-4-(fluoromethyl)-6-(trifluoromethyl)-5,6-dihydro-4H-1,3-oxazin-2-amine] was 1640 nM; that for `C[C@@]1(c2cc(NC(=O)c3ccc(C#N)cn3)cs2)C[C@@H](C(F)(F)F)OC(N)=N1` [Example 35, N-(5-((4S,6S)-2-Amino-4-methyl-6-(trifluoromethyl)-5,6-dihydro-4H-1,3-oxazin-4-yl)thiophen-3-yl)-5-cyanopicolinamide] was 88 nM; that for `COc1ncc(C#Cc2ccc(F)c([C@]3(C)C[C@@H](C(F)(F)F)OC(N)=N3)c2)cn1` [Example 53, (4S,6S)-4-[2-fluoro-5-[2-(2-methoxypyrimidin-5-yl)ethynyl]phenyl]-4-methyl-6-(trifluoromethyl)-5,6-dihydro-1,3-oxazin-2-amine] was 5650 nM.

For the molecule `C[C@]1(F)[C@H](C(F)(F)F)OC(N)=N[C@]1(C)c1cc(NC(=O)c2ccc(C#N)cn2)ccc1F` [Example 9, N-(3-((4R,5R,6R)-2-Amino-5-fluoro-4,5-dimethyl-6-(trifluoromethyl)-5,6-dihydro-4H-1,3-oxazin-4-yl)-4-fluorophenyl)-5-cyanopicolinamide], the IC50 came to 440 nM. Next, `C[C@@]1(c2cc(-c3cncc(Cl)c3)ccc2F)C[C@@H](C(F)(F)F)OC(N)=N1` [Example 13, (4S,6S)-4-(5-(5-Chloropyridin-3-yl)-2-fluorophenyl)-4-methyl-6-(trifluoromethyl)-5,6-dihydro-4H-1,3-oxazin-2-amine]: 150 nM. With `C[C@@]1(c2cc(NC(=O)c3ccc(Cl)cn3)cs2)C[C@@H](C(F)(F)F)OC(N)=N1` [Example 34, N-(5-((4S,6S)-2-amino-4-methyl-6-(trifluoromethyl)-5,6-dihydro-4H-1,3-oxazin-4-yl)thiophen-3-yl)-5-chloropicolinamide], the IC50 stood at 330 nM. On to `COc1cc(C#N)cnc1C#Cc1ccc(F)c([C@]2(CF)C[C@@H](C(F)(F)F)OC(N)=N2)c1` [Example 57, 6-((3-((4S,6S)-2-Amino-4-(fluoromethyl)-6-(trifluoromethyl)-5,6-dihydro-4H-1,3-oxazin-4-yl)-4-fluorophenyl)ethynyl)-5-methoxynicotinonitrile], for which the IC50 stood at 520 nM.

Consider `COc1cnc(C(=O)Nc2ccc(F)c([C@@]3(C)N=C(N)O[C@H](C(F)(F)F)[C@@H]3F)c2)cn1` [Example 5, N-(3-((4R,5R,6S)-2-Amino-5-fluoro-4-methyl-6-(trifluoromethyl)-5,6-dihydro-4H-1,3-oxazin-4-yl)-4-fluorophenyl)-5-methoxypyrazine-2-carboxamide], for which the IC50 turned out to be 12 nM.

In the case of `C[C@@]1(c2cc(C#Cc3cncc(Cl)c3)ccc2F)C[C@@H](C(F)(F)F)OC(N)=N1` [Example 55, (4S,6S)-4-(5-((5-chloropyridin-3-yl)ethynyl)-2-fluorophenyl)-4-methyl-6-(trifluoromethyl)-5,6-dihydro-4H-1,3-oxazin-2-amine], the IC50 worked out at 1170 nM. Take `C[C@@]1(c2cc(C#Cc3nn(C(F)F)cc3Cl)ccc2F)C[C@@H](C(F)(F)F)OC(N)=N1` [Example 68, (4S,6S)-4-(5-((4-chloro-1-(difluoromethyl)-1H-pyrazol-3-yl)ethynyl)-2-fluorophenyl)-4-methyl-6-(trifluoromethyl)-5,6-dihydro-4H-1,3-oxazin-2-amine]: the IC50 stood at 160 nM. Turning to `C[C@@]1(c2cc(C#Cc3ncc(C#N)s3)ccc2F)C[C@@H](C(F)(F)F)OC(N)=N1` [Example 67, 2-((3-((4S,6S)-2-Amino-4-methyl-6-(trifluoromethyl)-5,6-dihydro-4H-1,3-oxazin-4-yl)-4-fluorophenyl)ethynyl)thiazole-5-carbonitrile], the IC50 was determined as 950 nM. For `C[C@@]1(c2sc(-c3cncc(C#N)c3)cc2Cl)C[C@@H](C(F)(F)F)OC(N)=N1` [Example 31, 5-(5-((4S,6S)-2-Amino-4-methyl-6-(trifluoromethyl)-5,6-dihydro-4H-1,3-oxazin-4-yl)-4-chlorothiophen-2-yl)nicotinonitrile], the IC50 worked out at 340 nM.

For `CC#Cc1cncc(-c2ccc(F)c([C@]3(C)C[C@@H](C(F)(F)F)OC(N)=N3)c2)c1` [Example 14, (4S,6S)-4-(2-Fluoro-5-(5-(prop-1-ynyl)pyridin-3-yl)phenyl)-4-methyl-6-(trifluoromethyl)-5,6-dihydro-4H-1,3-oxazin-2-amine], the IC50 turned out to be 250 nM.

For the molecule `Cc1cc(C#Cc2ccc(F)c([C@]3(CF)C[C@@H](C(F)(F)F)OC(N)=N3)c2)sn1` [Example 64, (4S,6S)-4-(2-Fluoro-5-((3-methylisothiazol-5-yl)ethynyl)phenyl)-4-(fluoromethyl)-6-(trifluoromethyl)-5,6-dihydro-4H-1,3-oxazin-2-amine], the IC50 was found to be 270 nM.

Usually IC50 stands for the concentration needed to halve the response being measured.
